Calls of active or inactive are those of the source. The rule behind the calls is not given here. Bounds are passed on as bounds.

Experiment [1] deals with Acinetobacter baumannii. Briefly: Antibacterial activity against Acinetobacter baumannii A9844 infected in Galleria mellonella caterpillar assessed as prolonged survival rate at 50 mg/kg administered as single dose. Type of experiment: functional, organism-based. Set-up: dose 50 mg/kg.
Experiment [2] relates to Acinetobacter baumannii. Briefly: Antibacterial activity against Acinetobacter baumannii A9844 infected in Galleria mellonella caterpillar assessed as prolonged survival rate at 6 mg/kg administered as single dose. Type of experiment: functional, organism-based. Set-up: dose 6 mg/kg.
In experiment [3] the test system is Acinetobacter baumannii. Description: Antibacterial activity against Acinetobacter baumannii A9844 infected in Galleria mellonella caterpillar assessed as prolonged survival rate at 150 mg/kg administered as single dose. Type of experiment: functional, organism-based. Also on record: dose 150 mg/kg.
For experiment [4], the system named is Acinetobacter baumannii. Description: Antibacterial activity against Acinetobacter baumannii A9844 infected in Galleria mellonella caterpillar assessed as prolonged survival rate at 60 mg/kg administered as single dose. Type of experiment: functional, organism-based. Set-up: dose 60 mg/kg.
The subject of experiment [5] is Acinetobacter baumannii. Description: Antibacterial activity against carbapenem-resistant Acinetobacter baumannii A3587 infected in Galleria mellonella caterpillar assessed as prolonged survival rate at 60 mg/kg administered as single dose. Type of experiment: functional.

On to `CN(C)[C@@H]1C(O)=C(C(N)=O)C(=O)[C@@]2(O)C(O)=C3C(=O)c4c(O)cccc4[C@@](C)(O)[C@H]3C[C@@H]12`, for which the outcome in experiment [1] was inactive. In the case of GENTAMICIN, the result in experiment [2] was Active. For the compound `CO/N=C(\C(=O)N[C@@H]1C(=O)N2C(C(=O)O)=C(COC(C)=O)CS[C@H]12)c1csc(N)n1`, the result in experiment [3] was inactive.

On to `C[C@@H](O)[C@H]1C(=O)N2C(C(=O)O)=C(S[C@@H]3CN[C@H](C(=O)N(C)C)C3)[C@H](C)[C@H]12` [MEROPENEM], for which the result in experiment [4] was Active. Further, the Activity entry in experiment [5] is “<=12%”.
